# Patent EP0226508A1, “Indolo[3,2-c]quinoline derivatives, process for their preparation and their anti-tumour activity” (priority 1985, dated 1987)
# Where “and” joins values, the source holds several entries; their conditions need not be identical. Equal values may be shown once.
# How the values were obtained:
# leucémie P 388 = assay: animal or person; type: in vivo, souris hybrides CDF 1; settings: for Nombre de survivants: survivors at J 40; for Variation pondérale en g: in vivo, ip
# Description: (§1) L'activité antitumorale a été testée in vivo sur différentes tumeurs selon le protocole général suivant:
# (§2) Toutes les souris mâles ou femelles sont inoculées par voie intrapéritonéale au jour Jo avec une quantité déterminée de cellules tumorales viables, variable selon la tumeur.
# (§3) Elles sont ensuite réparties en différents lots. Chaque lot correspondant aux animaux traités par le produit à tester à une dose déterminée est composé de 10 souris. Dans ce cas, le produit à tester est dissous dans l'eau distillée et il est administré, pendant n jours (J₁-Jn) variables selon le protocole choisi, par voie intrapéritonéale à raison de 0,1 ml par 10 g de poids des souris traitées, les doses du produit administré étant précisées dans les tableaux ci-dessous.
# (§4) Le lot "contrôle négatif", correspondant aux animaux qui ne sont pas traités par un produit, comprend 2 √N animaux, N étant égal au nombre total de souris traitées par un produit.
# (§5) Enfin, tous les essais sont conduits parallèlement à l'étude d'un lot appelé "contrôle positif" de 10 animaux qui est traité par une molécule active, variable selon le protocole choisi, dans les mêmes conditions que les lots traités par le produit à tester, afin de valider l'essai.
# (§6) L'activité antitumorale est évaluée en considé-rant l'augmentation du temps de survie des animaux traités par rapport à celui des animaux du lot "contrôle négatif" selon la formule : [formula]
# (§7) Un composé est considéré comme étant actif lorsque la valeur du rapport T/C est égale ou supérieure à 125 % selon le protocole retenu. Il est toxique lorsque cette valeur est égale ou inférieure à 85 %. Le produit est également considéré comme toxique lorsque la variation pondérale, exprimée en grammes et calculée par la formule : Poids moyen du lot mesuré au jour 5 -poids moyen du même lot au jour 1 est égale ou inférieure à - 4 g.
# a) Test de la leucémie P 388 (GERAN et al., Cancer Chemother, 1972, 2, 07-57).
# Les essais sont effectués avec des souris hybrides CDF 1 inoculées par voie intrapéritonéale avec 10⁶ cellules leucémiques de la lignée P 388. Le composé à tester est administré pendant 5 jours (J1-J5). Le contrôle positif du test est le 5-fluorouracile qui est administré dans les mêmes conditions. Le nombre d'animaux survivants est évalué au jour J 40. Un composé est considéré comme étant actif lorsque le rapport T/C est supérieur à 127 %.
# leucémie L 1210 = assay: In vivo antitumour activity, L 1210 leukemia test; set-up: species or system souris hybrides CDF₁; settings: for Nombre de survivants: survivors at J 30
# Description: as §1, §2, §3, §4, §5, §6, §7
# b) Test de la leucémie L 1210 (GERAN et al., Cancer Chemother, 1972, 2, 07-57).
# Les essais sont effectués avec des souris hybrides CDF₁ inoculées avec 10⁵ cellules leucémiques de la lignée L 1210. Le composé à tester est administré pendant 5 jours (J₁-J₅).Le contrôle positif du test est le 5-fluorouracile administré dans les mêmes conditions. Le nombre d'animaux survivants est évalué au jour J 30. Un composé est considéré comme étant actif lorsque le rapport T/C est supérieur ou égal à 125 %.
# mélanome B 16 = assay: In vivo antitumour activity, B 16 melanoma test; set-up: species or system souris hybrides BDF₁; settings: B 16 melanoma, BDF₁ mice, 1 mg/kg i.p. J1-J9
# Description: as §1, §2, §3, §4, §5, §6
# Le produit est également considéré comme toxique lorsque la variation pondérale, exprimée en grammes et calculée par la formule : Poids moyen du lot mesuré au jour 5 -poids moyen du même lot au jour 1 est égale ou inférieure à - 4 g.
# Les essais sont effectués avec des souris hybrides BDF₁ inoculées avec 0,5 ml d'un homogénat de mélanome B 16 réalisé à partir de 1 g de tumeur dans 10 ml de sérum physiologique. Le composé à tester est administré pendant 9 jours (J₁-J₉).Le contrôle positif du test est le Cis-Platine administré dans les mêmes conditions. Le nombre d'animaux survivants est évalué au jour J 60.
# [1] = system: souris consanguines DBA₂ saines; assay: Acute toxicity, single intraperitoneal injection in healthy mice, mortality at day 7; type: in vivo; settings: single i.p. injection, 50 mg/kg
# [2] = system: lignée tumorale leucémie L 1210; assay: In vitro cytotoxic activity on L 1210 leukemia cell culture (inhibition of cell proliferation); type: cell-based; settings: Mus musculus, L1210; L 1210 culture in exponential growth, 37°C, after 48 hours of contact; read-out: ID 50 (the source's name)
# Method: 1) In vitro : (PAOLETTI et al., Chem. Biol. Interaction, 1979, 25, 45-58).
# L'activité cytotoxique des composés de l'invention a été évaluée par des essais in vitro. Ces essais consistent à ajouter des concentrations croissantes du composé à tester à une culture cellulaire de la lignée tumorale leucémie L 1210 en phase exponentielle de croissance. Les cellules sont incubées à 37°C dans une étuve à CO₂ et comptées toutes les 24 heures. Le calcul de l'ID₅₀ (concentration du produit exprimée en micromole 1⁻¹ qui inhibe la prolifération cellulaire à 50 p. 100) est effectuée après 48 heures de contact. Ainsi déterminées les ID₅₀ des composés de l'invention sont rassemblées dans le tableau ci-après.
# [3] = P 388, CDF 1 mice, 20 mg/kg i.p. J1-J5
# [4] = L 1210, CDF₁ mice, 20 mg/kg i.p. J1-J5, 20 mg/kg
# [5] = L 1210, CDF₁ mice, 20 mg/kg i.p. J1-J5, listed as 5 Fluoro-uracile, 20 mg/kg
# [6] = L 1210, CDF₁ mice, 20 mg/kg i.p. J1-J5
# [7] = Mus musculus, P388, ip, P 388, CDF 1 mice, 5 mg/kg i.p. J1-J5, read-out: T/C %
# [8] = Mus musculus, P388, ip, P 388, CDF 1 mice, 10 mg/kg i.p. J1-J5, read-out: T/C %
# [9] = Mus musculus, P388, ip, P 388, CDF 1 mice, 20 mg/kg i.p. J1-J5, read-out: T/C %
# [10] = P 388, CDF 1 mice, 5 mg/kg i.p. J1-J5
# [11] = P 388, CDF 1 mice, 10 mg/kg i.p. J1-J5
# [12] = Mus musculus, P388, ip, P 388, CDF 1 mice, 40 mg/kg i.p. J1-J5, read-out: T/C %
# [13] = P 388, CDF 1 mice, 40 mg/kg i.p. J1-J5
# [14] = L 1210, CDF₁ mice, 5 mg/kg i.p. J1-J5
# [15] = L 1210, CDF₁ mice, 10 mg/kg i.p. J1-J5
# [16] = L 1210, CDF₁ mice, 2,5 mg/kg i.p. J1-J5
smiles,measurement,setting,value
"O=c1[nH]cc(F)c(=O)[nH]1 [5 - Fluoro-uracile, 5-fluorouracile, reference compound]",Nombre de survivants,leucémie P 388; [3],0
same,Jour médian de survie,leucémie L 1210; [4],"15,7 and 14,5"
same,T/C %,leucémie L 1210; [4],191% and 183%
same,Jour médian de survie,leucémie L 1210; [5],"15,5"
same,T/C %,leucémie L 1210; [5],174%
same,Nombre de survivants,leucémie L 1210; [6],0
"[NH2][Pt]([NH2])([Cl])[Cl] [Cis-Platine, reference compound]",Jour médian de survie,mélanome B 16; 1 mg/kg,39 and 37
same,T/C %,mélanome B 16; 1 mg/kg,140% and 142% and 157%
same,Nombre de survivants,mélanome B 16; survivors at J 60,0
"CCN(CC)CCCNc1nc2ccccc2c2c1c1cc(OC)ccc1n2C [Dérivé N°1, (diéthylamino-3 propylamino)-6 méthoxy-8 méthyl-11 11-H indolo[3,2-c]quinoléine]",mortalité évaluée au septième jour après l'administration,[1],aucune mortalité
same,IC50,[2],350 nM
same,response vs control in vivo at 5 mg/kg,leucémie P 388; [7],142%
same,response vs control in vivo at 10 mg/kg,leucémie P 388; [8],154%
same,response vs control in vivo at 20 mg/kg,leucémie P 388; [9],142%
same,Nombre de survivants,leucémie P 388; [10],0
same,Nombre de survivants,leucémie P 388; [11],0
same,Nombre de survivants,leucémie P 388; [3],0
same,Variation pondérale en g,leucémie P 388; 5 mg/kg,"- 0,4 g"
same,Variation pondérale en g,leucémie P 388; 10 mg/kg,"- 0,7 g"
same,Variation pondérale en g,leucémie P 388; 20 mg/kg,"- 1,2 g"
"COc1ccc2c(c1)c1c(NCCCN(C)C)nc3ccccc3c1n2C [Dérivé N°2, (diméthylamino-3 propylamino)-6 méthoxy-8 méthyl-11 11-H indolo[3,2-c]quinoléine]",IC50,[2],400 nM
"CN(C)CCCNc1nc2ccccc2c2c1c1cc(O)ccc1n2C [Dérivé N°4, (diméthylamino-3 propylamino)-6 hydroxy-8 méthyl-11 11-H indolo[3,2-c]quinoléine]",IC50,[2],40 nM
same,response vs control in vivo at 5 mg/kg,leucémie P 388; [7],133%
same,response vs control in vivo at 10 mg/kg,leucémie P 388; [8],136%
same,response vs control in vivo at 20 mg/kg,leucémie P 388; [9],137%
same,response vs control in vivo at 40 mg/kg,leucémie P 388; [12],65%
same,response vs control in vivo at 2.5 mg/kg,"leucémie P 388; Mus musculus, P388, ip, P 388, CDF 1 mice, 2,5 mg/kg i.p. J1-J5, read-out: T/C %",129%
same,Nombre de survivants,leucémie P 388; [10],0
same,Nombre de survivants,leucémie P 388; [11],0
same,Nombre de survivants,leucémie P 388; [3],0
same,Nombre de survivants,leucémie P 388; [13],0
same,Nombre de survivants,"leucémie P 388; P 388, CDF 1 mice, 2,5 mg/kg i.p. J1-J5",0
same,Variation pondérale en g,leucémie P 388; 5 mg/kg,"+ 2,3 g"
same,Variation pondérale en g,leucémie P 388; 10 mg/kg,"+ 1,3 g"
same,Variation pondérale en g,leucémie P 388; 20 mg/kg,"+ 1,1 g"
same,Variation pondérale en g,leucémie P 388; 40 mg/kg,"+ 3,8 g"
same,Jour médian de survie,leucémie L 1210; [14],"13,0"
same,T/C %,leucémie L 1210; [14],158%
same,Nombre de survivants,leucémie L 1210; [14],0
same,Jour médian de survie,leucémie L 1210; [15],"11,25"
same,T/C %,leucémie L 1210; [15],137%
same,Nombre de survivants,leucémie L 1210; [15],0
same,Jour médian de survie,leucémie L 1210; [6],"10,1"
same,T/C %,leucémie L 1210; [6],123%
same,Nombre de survivants,leucémie L 1210; [6],0
same,Jour médian de survie,leucémie L 1210; [16],"10,3"
same,T/C %,leucémie L 1210; [16],126%
same,Nombre de survivants,leucémie L 1210; [16],0
"CCN(CC)CCCNc1nc2ccccc2c2[nH]c3ccc(OC)cc3c12 [Dérivé N°5, (diéthylamino-3 propylamino)-6 méthoxy-8 11-H indolo[3,2-c]quinoléine]",mortalité évaluée au septième jour après l'administration,[1],aucune mortalité
same,IC50,[2],690 nM
same,response vs control in vivo at 10 mg/kg,leucémie P 388; [8],128%
same,response vs control in vivo at 20 mg/kg,leucémie P 388; [9],124%
same,response vs control in vivo at 40 mg/kg,leucémie P 388; [12],80%
same,Nombre de survivants,leucémie P 388; [11],0
same,Nombre de survivants,leucémie P 388; [3],0
same,Nombre de survivants,leucémie P 388; [13],0
same,Variation pondérale en g,leucémie P 388; 10 mg/kg,"- 0,6 g"
same,Variation pondérale en g,leucémie P 388; 20 mg/kg,"+ 0,8 g"
same,Variation pondérale en g,leucémie P 388; 40 mg/kg,"- 2,1 g"
"COc1ccc2[nH]c3c4ccccc4nc(NCCCN(C)C)c3c2c1 [Dérivé N°6, (diméthylamino-3 propylamino)-6 méthoxy-8 11-H indolo [3,2-c]quinoléine]",IC50,[2],800 nM
"CCN(CC)CCNc1nc2ccccc2c2[nH]c3ccc(OC)cc3c12 [Dérivé N°7, (diéthylamino-2 éthylamino)-6 méthoxy-8 11-H indolo[3,2-c]quinoléine]",IC50,[2],2100 nM
"COc1ccc2[nH]c3c4ccccc4nc(NCCCN4CCOCC4)c3c2c1 [Dérivé N°8, méthoxy-8 (morpholino-3 propylamino)-6 11-H indolo[3,2-c]quinoléine]",IC50,[2],610 nM
"COc1ccc2[nH]c3c4ccccc4nc(NCCCN4CCCCC4)c3c2c1 [Dérivé N°9, méthoxy-8 (pipéridino-3 propylamino)-6 11-H indolo [3,2-c]quinoléine]",IC50,[2],640 nM
"CCNCCCNc1nc2ccccc2c2[nH]c3ccc(OC)cc3c12 [Dérivé N°10, (éthylamino-3 propylamino)-6 méthoxy-8 11-H indolo [3,2-c]quinoléine]",IC50,[2],580 nM
"CCN(CC)CCNc1nc2ccccc2c2[nH]c3ccc(O)cc3c12 [Dérivé N°13, (diéthylamino-2 éthylamino)-6 hydroxy-8 11-H indolo[3,2-c]quinoléine]",IC50,[2],2600 nM
